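Tested at 5 concentrations; 48 h exposure; 96-well plates; endpoints linearly interpolated, else capped at highest concentration. TGI denotes the concentration required for complete inhibition of growth.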
Columns and labels:
Assay in all cases: growth of human tumour cells (NCI), 48 h
786-0 renal = system: 786-0 renal
A498 renal = system: A498 renal
A549 NSCLC = system: A549 NSCLC
ACHN renal = system: ACHN renal
BT-549 breast = system: BT-549 breast
CAKI-1 renal = system: CAKI-1 renal
CCRF-CEM leukemia = system: CCRF-CEM leukemia
COLO 205 colon = system: COLO 205 colon
DU-145 prostate = system: DU-145 prostate
EKVX NSCLC = system: EKVX NSCLC
HCC-2998 colon = system: HCC-2998 colon
HCT-116 colon = system: HCT-116 colon
HCT-15 colon = system: HCT-15 colon
HL-60(TB) leukemia = system: HL-60(TB) leukemia
HOP-62 NSCLC = system: HOP-62 NSCLC
HOP-92 NSCLC = system: HOP-92 NSCLC
HS 578T breast = system: HS 578T breast
HT29 colon = system: HT29 colon
K-562 leukemia = system: K-562 leukemia
KM12 colon = system: KM12 colon
LOX IMVI melanoma = system: LOX IMVI melanoma
M14 melanoma = system: M14 melanoma
MALME-3M melanoma = system: MALME-3M melanoma
MCF7 breast = system: MCF7 breast
MDA-MB-231 breast = system: MDA-MB-231 breast
MDA-MB-435 = system: MDA-MB-435
MDA-N = system: MDA-N
MOLT-4 leukemia = system: MOLT-4 leukemia
NCI-H226 lung = system: NCI-H226 lung
NCI-H23 lung = system: NCI-H23 lung
NCI-H460 lung = system: NCI-H460 lung
NCI-H522 lung = system: NCI-H522 lung
NCI/ADR-RES ovarian = system: NCI/ADR-RES ovarian
OVCAR-3 ovarian = system: OVCAR-3 ovarian
OVCAR-4 ovarian = system: OVCAR-4 ovarian
OVCAR-5 ovarian = system: OVCAR-5 ovarian
OVCAR-8 ovarian = system: OVCAR-8 ovarian
RPMI-8226 leukemia = system: RPMI-8226 leukemia
RXF 393 renal = system: RXF 393 renal
SF-268 CNS = system: SF-268 CNS
SF-295 CNS = system: SF-295 CNS
SF-539 CNS = system: SF-539 CNS
SK-MEL-2 melanoma = system: SK-MEL-2 melanoma
SK-MEL-28 melanoma = system: SK-MEL-28 melanoma
SK-MEL-5 melanoma = system: SK-MEL-5 melanoma
SK-OV-3 ovarian = system: SK-OV-3 ovarian
SN12C renal = system: SN12C renal
SNB-19 CNS = system: SNB-19 CNS
SR leukemia = system: SR leukemia
SW-620 colon = system: SW-620 colon
T-47D breast = system: T-47D breast
TK-10 renal = system: TK-10 renal
U251 CNS = system: U251 CNS
UACC-257 melanoma = system: UACC-257 melanoma
UACC-62 melanoma = system: UACC-62 melanoma
UO-31 renal = system: UO-31 renal

Compound `O=C1/C(=C\c2cccc(Oc3ccccc3)c2)SC(c2ccccc2)N1c1ccccc1Cl` (stereo unspecified) has a TGI (786-0 renal) greater than 100 µM, a TGI (A498 renal) greater than 100 µM and a TGI (A549 NSCLC) greater than 100 µM. The TGI (ACHN renal) was greater than 100 µM, the TGI (BT-549 breast) was 96.6 µM and the TGI (CAKI-1 renal) was greater than 100 µM. The TGI (CCRF-CEM leukemia) was 38.4 µM, the TGI (COLO 205 colon) was 49 µM and the TGI (DU-145 prostate) was greater than 100 µM. For the same compound, the TGI (EKVX NSCLC) was greater than 100 µM, the TGI (HCC-2998 colon) was 78.9 µM and the TGI (HCT-116 colon) was 50.7 µM. For the same compound, the TGI (HCT-15 colon) was greater than 100 µM, the TGI (HL-60(TB) leukemia) was greater than 100 µM and the TGI (HOP-62 NSCLC) was greater than 100 µM. For the same compound, the TGI (HOP-92 NSCLC) was 57.5 µM, the TGI (HS 578T breast) was 60.2 µM and the TGI (HT29 colon) was 49.9 µM. For the same compound, the TGI (K-562 leukemia) was greater than 100 µM, the TGI (KM12 colon) was 98.8 µM and the TGI (LOX IMVI melanoma) was 75.8 µM. For the same compound, the TGI (M14 melanoma) was greater than 100 µM, the TGI (MALME-3M melanoma) was greater than 100 µM and the TGI (MCF7 breast) was greater than 100 µM. The TGI (MDA-MB-231 breast) was greater than 100 µM, the TGI (MDA-MB-435) was 68 µM and the TGI (MDA-N) was 54.2 µM. The TGI (MOLT-4 leukemia) was greater than 100 µM, the TGI (NCI-H226 lung) was greater than 100 µM and the TGI (NCI-H23 lung) was 69.7 µM. For the same compound, the TGI (NCI-H460 lung) was greater than 100 µM, the TGI (NCI-H522 lung) was 48.5 µM and the TGI (NCI/ADR-RES ovarian) was greater than 100 µM. The TGI (OVCAR-3 ovarian) was greater than 100 µM, the TGI (OVCAR-4 ovarian) was greater than 100 µM and the TGI (OVCAR-5 ovarian) was greater than 100 µM. For the same compound, the TGI (OVCAR-8 ovarian) was 79.9 µM, the TGI (RPMI-8226 leukemia) was 55.3 µM and the TGI (RXF 393 renal) was 78.5 µM. It also gave a TGI (SF-268 CNS) greater than 100 µM, a TGI (SF-295 CNS) greater than 100 µM and a TGI (SF-539 CNS) of 39 µM. It also gave a TGI (SK-MEL-2 melanoma) of 92.4 µM, a TGI (SK-MEL-28 melanoma) greater than 100 µM and a TGI (SK-MEL-5 melanoma) of 29.8 µM. The TGI (SK-OV-3 ovarian) was greater than 100 µM, the TGI (SN12C renal) was 96.9 µM and the TGI (SNB-19 CNS) was 76.4 µM. The TGI (SR leukemia) was greater than 100 µM, the TGI (SW-620 colon) was greater than 100 µM and the TGI (T-47D breast) was greater than 100 µM. It also gave a TGI (TK-10 renal) greater than 100 µM, a TGI (U251 CNS) of 78.5 µM and a TGI (UACC-257 melanoma) of 85.8 µM. For the same compound, the TGI (UACC-62 melanoma) was greater than 100 µM and the TGI (UO-31 renal) was greater than 100 µM.

Reference: PubChem BioAssay (NCI)
